# In US4778799A, “Synergistic combination of flupirtin and non-steroidal antiphlogistic” (priority 1985, dated 1988):
# Counter-ions that a name gives are not always drawn. Like-named read-outs stand apart in the source and are kept apart here.
# How the values were obtained:
# [1] = Acetic Acid-Writhing Test according to Koster et al., analgetic activity, per os; format: in vivo, white mouse (NMRI-Mouse); parameters: ED50: unit: mg/kg; conditions: for ED50: substance alone, 30 minutes after giving, linear regression; for minimal effective dose: read-out: lowest analgetically effective dosage; for inhibition in vivo at 3 mg/kg: 3.0 mg/kg per os; for inhibition in vivo at 5 mg/kg: 5.0 mg/kg per os; for inhibition in vivo at 6 mg/kg: 6.0 mg/kg per os; for inhibition in vivo at 10 mg/kg: 10.0 mg/kg per os; for factor for the increase in activity of the analgetic action in combination with Flupirtin: compared to analgetic side activity component of the pure antiphlogistic
# Method: These investigations were carried out in the Acetic Acid Test (Writhing Test) on the white mouse.
# Writhing According to Koster et al; Fed.
# (§1) Animal: White Mouse (NMRI-Mouse); Application: per os
# Writhing Test According to Koster et al.: Fed.
# as §1
# The pain reaction is expressed as a characteristic stretching of the animals ("writhing syndrome") which persists in irregular time intervals for a long period of time after the injection of the acetic acid. The dosage dependent suppression of the frequency of the stretching motion compared to an untreated control group is expressed in percent as analgetic effect. The evaluation is carried out by determination of the ED50 (Method of Linear Regression).
# The acetic acid test is marked by the fact that not only is there detectable the effect of strong, central acting analgetics but also preponderantly peripherally acting analgetics-antipyretics and antiphlogistically active pharmaceuticals such as phenyl butazone, Indometacin and others. Therewith the effect in this procedure refers to a peripheral component of the analgesic.
# [2] = Bradykinin-Edema Test, antiphlogistic activity, per os; format: in vivo, albino rat (Sprague-Dawley); conditions: alone; for ED50: per os, printed in words: no ED50 defineable
# Method: Bradykinin-Edema-Test Relying On and Modification of the Method of
# Morsdorf et al (Arch. int. Pharmacodyn. 192,111-127 (1971). Animal:
# Albino-rat (Sprague-Dawley):
# Relying on the modification of the method of Morsdorf et al (Arch. int. Pharmacodyn. Volume 192, pages 111-127 (1971)) male rats received subplantarly in the right hind paw an injection of a 1% carrageenin solution (Carrageenin, Type IV, Sigma C-3889). One hour and four hours later there was determined the volume of the paw. To measure the volume there was used a volume meter (Rhema-Labortechnik Company, D-6238 Hofheim, Type 2060). Directly after the first measurement the test substance was dispensed by means of a gullet stomach catheter. There was calculated the increase in the swelling of the paw in the second measurement compared to the first measurement in absolute values (ml). The evaluation included the determination of the percent average value of the difference of the edema volumes one and four hours after receiving the inflammatory solution. The edema inhibiting action was calculated in percent from the edema volume measured by water displacement in comparison to the edema volume of the untreated inflammed control group.
# As the single change in comparison to the Carrageenin-Edema Test in place of Carrageenin there was injected subplantarly Bradykinin (Sigma B 3259) 0.01 mg/animal in 0.1 ml of a 0.9% sodium chloride solution.
# [3] = Ulcerogenic effect (stomach mucosa erosion) 24 hours after single oral dispensation; format: in vivo, albino rat (Sprague-Dawley); conditions: 24 mg/kg Diclofenac alone per os
# Method: Testing of Ulcerogenic Effect Relying On the Method of Jahn and Adrian (Arzneimittelforschung, Volume 19 (1969) pages 36-52)
# The experimental animals are male albino rats which are maintained under the usual conditions at 21°-22° C. After 48 hours of qualified feeding the test materials were dispensed perorally an increasing dosages. The animals were killed 24 hours later and the stomachs investigated for ulcerogenic changes according to the method of Munchow, Arzneimittelforschung, Volume 4 (1954), pages 341-344. (The size of the ulcers formed is measured are classified according to Munchow.)
# [4] = Randall-Selitto Test, inflammation pain, per os; format: in vivo, albino rat (Sprague-Dawley); conditions: for ED50: Rattus norvegicus, po, 0.5 h
# Method: Randall-Selitto-Test According to Randall, Selitto, Arch. int.
# Animal: Albino-Rat (Sprague-Dawley); Application: per os
# Sucker, Fuchs, Speiser, Pharmazeutische Technologie, Thieme-Verlag, Stuttgart, 1978. Short Description of the Pharmacological Test Methods Mentioned in the Application Randall-Selitto-Test (Inflammation Pain on the Rat)
# In accordance with the method of Randall and Selitto (L. O. Randall, J. J. Selitto, Arch. int. Pharmacodyn., Volume 111, pages 409-418, 1957) rats were injected subplantarly with […] of a 20% (in dimineralized water) brewer's yeast suspension in the right hind paw. 21/2 hours later the test materials were dispensed and 30 minutes later the swelling pain measured with an Algesiemeter as pressure (in grams) on the inflamed paw (apparatus of Ugo Basile, Milan, Italy). As criteria there are considered the defensive reaction of the animals drawing the paw away and/or freeing themselves from the grip of the experimenters. The effect of the material was determined from the increase of the swelling pain compared to the untreated control group. The experimental procedure different from the original method in that the materials were applied 21/2 hours after the setting of edema and not simultaneously therewith. In this way there should be prevented the development of edema, being checked by a possible antiphlogistic action and the analgesy superimposed or simulated.
# The ED50 was determined by means of the method of linear regression.
# [5] = antiphlogistic alone, per os, mouse; cited from earlier work
# [6] = Mus musculus, po, 0.5 h, per os
# [7] = Mus musculus, po, read-out: Activity in %
# [8] = alone, per os, 30 minutes after giving, linear regression, read-out: ED50
# [9] = Mus musculus, po, 0.5 h, per os, read-out: ED50
# [10] = Mus musculus, po, alone, 4.0 mg/kg per os, read-out: Activity in %
structure (smiles),measurement,setting,value
O=C(O)Cc1ccccc1Nc1c(Cl)cccc1Cl [Diclofenac],ED50,[1]; [6],12 mg/kg
same,inhibition in vivo at 3.9 mg/kg,[1]; [7],33.3%
same,inhibition in vivo at 7.8 mg/kg,[1]; [7],50%
same,inhibition in vivo at 15.6 mg/kg,[1]; [7],45.8%
same,inhibition in vivo at 31.25 mg/kg,[1]; [7],66%
same,inhibition in vivo at 62.5 mg/kg,[1]; [7],67.4%
same,inhibition in vivo at 125 mg/kg,[1]; [7],91.7%
same,minimal effective dose,"[1]; Mus musculus, po",3.9 mg/kg
same,ED50,"[1]; per os, 30 min",12.1 mg/kg
same,Activity in % (- = inhibiting),[2]; 1.0 mg/kg per os,+2.9%
same,Activity in % (- = inhibiting),[2]; 3.0 mg/kg per os,+8.6%
same,Activity in % (- = inhibiting),[2]; 9.0 mg/kg per os,-31.4%
same,Activity in % (- = inhibiting),[2]; 27.0 mg/kg per os,-45.7%
same,ED50,[2],No ED50
same,ulcerogenic effect (stomach mucosa erosion),[3],erosion of the stomach mucosa
same,ED50,[4]; [8],2.95 mg/kg
same,Activity in %,"[4]; alone, 1.0 mg/kg per os",20.99%
same,Activity in %,"[4]; alone, 3.0 mg/kg per os",32.60%
same,Activity in %,"[4]; alone, 10.0 mg/kg per os",100.55%
same,Activity in %,"[4]; alone, 30.0 mg/kg per os",135.36%
Cc1cc(NC(=O)C2=C(O)c3ccccc3S(=O)(=O)N2C)no1 [Isoxicam],ED50,[1]; [9],6.6 mg/kg
same,inhibition in vivo at 3 mg/kg,"[1]; Mus musculus, po, alone",10.1%
same,inhibition in vivo at 4 mg/kg,[1]; [10],30.2%
same,inhibition in vivo at 5 mg/kg,"[1]; Mus musculus, po, alone",36.7%
same,inhibition in vivo at 6 mg/kg,"[1]; Mus musculus, po, alone",46%
same,inhibition in vivo at 7 mg/kg,"[1]; Mus musculus, po, alone, 7.0 mg/kg per os",51.1%
same,inhibition in vivo at 8 mg/kg,"[1]; Mus musculus, po, alone, 8.0 mg/kg per os, read-out: Activity in %",62.6%
same,inhibition in vivo at 10 mg/kg,"[1]; Mus musculus, po, alone",66.2%
same,factor for the increase in activity of the analgetic action in combination with Flupirtin,[1],2-15
CN1C(C(=O)Nc2ccccn2)=C(O)c2ccccc2S1(=O)=O [Piroxicam],ED50,[1]; [9],3.46 mg/kg
same,inhibition in vivo at 1 mg/kg,"[1]; Mus musculus, po, alone, 1.0 mg/kg per os",38.2%
same,inhibition in vivo at 3 mg/kg,"[1]; Mus musculus, po, alone",40%
same,inhibition in vivo at 4 mg/kg,[1]; [10],53.6%
same,inhibition in vivo at 5 mg/kg,"[1]; Mus musculus, po, alone",61.8%
same,inhibition in vivo at 10 mg/kg,"[1]; Mus musculus, po, alone",70.9%
same,inhibition in vivo at 20 mg/kg,"[1]; Mus musculus, po, alone, 20.0 mg/kg per os",49.1%
same,factor for the increase in activity of the analgetic action in combination with Flupirtin,[1],2-15
same,LD50,[5],350 mg/kg
CCOC(=O)Nc1ccc(NCc2ccc(F)cc2)nc1N [Flupirtin (Hydrochloride)],Activity in % (- = inhibiting),[2]; 5.0 mg/kg per os,+4.6%
same,Activity in % (- = inhibiting),[2]; 10.0 mg/kg per os,-25.0%
same,Activity in % (- = inhibiting),[2]; 20.0 mg/kg per os,-13.6%
same,Activity in % (- = inhibiting),[2]; 30.0 mg/kg per os,-2.3%
same,ED50,[2],no ED50
same,ED50,[4],30.9 mg/kg
same,Activity in %,"[4]; alone, 10.0 mg/kg per os",-8.3%
same,Activity in %,"[4]; alone, 20.0 mg/kg per os",23.2%
same,Activity in %,"[4]; alone, 30.0 mg/kg per os",45.8%
same,Activity in %,"[4]; alone, 40.0 mg/kg per os",67.5%
COc1ccc2cc([C@H](C)C(=O)O)ccc2c1 [Naproxen],inhibition in vivo at 0.38 mg/kg,"[1]; Mus musculus, po, alone, 0.38 mg/kg per os",21.7%
same,inhibition in vivo at 0.75 mg/kg,"[1]; Mus musculus, po, alone, 0.75 mg/kg per os",42%
same,inhibition in vivo at 1.5 mg/kg,"[1]; Mus musculus, po, alone, 1.5 mg/kg per os",43.4%
same,inhibition in vivo at 3 mg/kg,"[1]; Mus musculus, po, alone",53.8%
same,inhibition in vivo at 6 mg/kg,"[1]; Mus musculus, po, alone",70%
same,inhibition in vivo at 12 mg/kg,"[1]; Mus musculus, po, alone, 12.0 mg/kg per os",74.1%
same,inhibition in vivo at 24 mg/kg,"[1]; Mus musculus, po, alone, 24.0 mg/kg per os",54.5%
same,factor for the increase in activity of the analgetic action in combination with Flupirtin,[1],2-15
CC1=C(CC(=O)O)c2cc(F)ccc2/C1=C\c1ccc([S+](C)[O-])cc1 (stereo not drawn) [Sulindac],ED50,[1]; [9],2.3 mg/kg
same,inhibition in vivo at 0.47 mg/kg,[1]; [7],29.6%
same,inhibition in vivo at 0.94 mg/kg,[1]; [7],44.6%
same,inhibition in vivo at 1.88 mg/kg,[1]; [7],49.7%
same,inhibition in vivo at 3.75 mg/kg,[1]; [7],56%
same,inhibition in vivo at 7.5 mg/kg,[1]; [7],61%
same,inhibition in vivo at 15 mg/kg,[1]; [7],71.1%
same,inhibition in vivo at 30 mg/kg,[1]; [7],72.3%
same,factor for the increase in activity of the analgetic action in combination with Flupirtin,[1],2-15
CCOC(=O)Nc1ccc(NCc2ccc(F)cc2)nc1N [Flupirtin (Gluconate)],ED50,[1]; [6],43.9 mg/kg
same,inhibition in vivo at 0.56 mg/kg,[1]; [7],19.2%
same,inhibition in vivo at 1.12 mg/kg,[1]; [7],28%
same,inhibition in vivo at 2.24 mg/kg,[1]; [7],37.6%
same,inhibition in vivo at 4.47 mg/kg,[1]; [7],46.4%
same,inhibition in vivo at 8.93 mg/kg,[1]; [7],38.4%
same,inhibition in vivo at 17.85 mg/kg,[1]; [7],22.4%
same,inhibition in vivo at 35.7 mg/kg,[1]; [7],61.6%
COc1ccc2c(c1)c(CC(=O)N[C@@H](C=O)[C@@H](O)[C@H](O)[C@H](O)CO)c(C)n2C(=O)c1ccc(Cl)cc1 [Glucametacin],factor for the increase in activity of the analgetic action in combination with Flupirtin,[1],2-15
"CCOC(=O)Nc1ccc(NCc2ccc(F)cc2)nc1N [Flupirtin, 2-amino-3-carbethoxyamino-6-(fluoro-benzylamino)-pyridine]",ED50,[1]; [9],44 mg/kg
same,minimal effective dose,"[1]; Mus musculus, po, alone, per os",2.24 mg/kg
COc1ccc2c(c1)c(CC(=O)O)c(C)n2C(=O)c1ccc(Cl)cc1 [Indometacin],ED50,[1]; [6],4.3 mg/kg
same,inhibition in vivo at 2 mg/kg,[1]; [7],17.3%
same,inhibition in vivo at 4 mg/kg,[1]; [7],50%
same,inhibition in vivo at 8 mg/kg,[1]; [7],86.3%
same,inhibition in vivo at 16 mg/kg,[1]; [7],82.1%
same,factor for the increase in activity of the analgetic action in combination with Flupirtin,[1],2-15
same,LD50,[5],21 mg/kg
same,ED50,[4]; [8],2.77 mg/kg
same,Activity in %,"[4]; alone, 1.0 mg/kg per os",12.3%
same,Activity in %,"[4]; alone, 2.0 mg/kg per os",22.05%
same,Activity in %,"[4]; alone, 4.0 mg/kg per os",58.97%
same,Activity in %,"[4]; alone, 8.0 mg/kg per os",114.87%
same,Activity in %,"[4]; alone, 16.0 mg/kg per os",127.18%
"CC(=O)Oc1ccccc1C(=O)O [Acetylsalicylic Acid, acetylsalicylic acid]",ED50,[1]; [6],149 mg/kg
same,inhibition in vivo at 25 mg/kg,[1]; [7],11%
same,inhibition in vivo at 50 mg/kg,[1]; [7],30.1%
same,inhibition in vivo at 75 mg/kg,[1]; [7],39%
same,inhibition in vivo at 100 mg/kg,[1]; [7],41.1%
same,inhibition in vivo at 150 mg/kg,[1]; [7],43.2%
same,inhibition in vivo at 200 mg/kg,[1]; [7],59.6%
same,inhibition in vivo at 400 mg/kg,[1]; [7],71.2%
same,factor for the increase in activity of the analgetic action in combination with Flupirtin,[1],2-15
same,LD50,[5],815 mg/kg
